The target of the assay is T1, Bromodomain-containing protein 1 (Homo sapiens, UniProt O95696).
T1 sequence (O95696 whole entry): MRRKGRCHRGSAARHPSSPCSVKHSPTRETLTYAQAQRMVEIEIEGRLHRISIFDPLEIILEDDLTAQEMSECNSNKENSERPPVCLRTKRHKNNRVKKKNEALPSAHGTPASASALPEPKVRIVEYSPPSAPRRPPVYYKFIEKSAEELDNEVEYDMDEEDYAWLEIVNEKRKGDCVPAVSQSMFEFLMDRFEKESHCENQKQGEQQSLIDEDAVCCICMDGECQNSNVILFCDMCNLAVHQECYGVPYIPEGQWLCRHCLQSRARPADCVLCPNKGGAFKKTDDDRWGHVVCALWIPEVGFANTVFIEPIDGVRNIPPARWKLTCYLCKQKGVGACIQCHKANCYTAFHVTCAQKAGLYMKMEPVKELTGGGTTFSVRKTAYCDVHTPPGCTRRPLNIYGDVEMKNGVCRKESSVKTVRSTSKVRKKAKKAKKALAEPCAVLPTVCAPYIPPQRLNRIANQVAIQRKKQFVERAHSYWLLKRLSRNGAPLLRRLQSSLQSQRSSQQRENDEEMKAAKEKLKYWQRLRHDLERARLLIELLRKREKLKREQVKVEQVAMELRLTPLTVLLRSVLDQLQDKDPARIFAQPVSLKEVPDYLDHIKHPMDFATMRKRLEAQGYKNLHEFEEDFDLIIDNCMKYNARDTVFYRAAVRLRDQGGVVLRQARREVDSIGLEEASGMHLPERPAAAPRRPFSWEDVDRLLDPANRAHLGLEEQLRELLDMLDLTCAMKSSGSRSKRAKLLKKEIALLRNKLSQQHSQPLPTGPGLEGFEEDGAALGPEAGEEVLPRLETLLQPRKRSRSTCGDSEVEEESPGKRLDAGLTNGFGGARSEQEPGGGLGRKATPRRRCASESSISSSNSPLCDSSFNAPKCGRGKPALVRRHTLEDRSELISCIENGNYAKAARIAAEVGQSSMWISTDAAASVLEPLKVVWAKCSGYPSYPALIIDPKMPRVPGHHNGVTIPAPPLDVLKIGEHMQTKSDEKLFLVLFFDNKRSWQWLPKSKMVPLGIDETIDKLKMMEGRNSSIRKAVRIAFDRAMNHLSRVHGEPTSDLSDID
The assay can be described thus: Alphascreen assay. Binding to BRD1A (domain start/stop: E556-A688) by alphascreen assay. (Bead proximity is the source of the signal in Alpha formats.)

Molecules are shown by their SMILES.

The IC50 is the concentration needed to halve the response being measured. The low end stands for greater potency in that assay, the high end for weaker potency in that assay. For `COc1cc2c(cc1NS(=O)(=O)c1ccc(Br)cc1C)n(C)c(=O)n2C` [OF-1], the IC50 was found to be 1680 nM.

Values taken from BindingDB's records for doi:10.1021/acs.jmedchem.7b00306 (Bayer, 2017).
